From ChEMBL document CHEMBL1148209, “Isolation and structure determination of cryptophycins 38, 326, and 327 from the terrestrial cyanobacterium Nostoc sp. GSV 224” (J Nat Prod, 2004) come the findings set out here.

pIC50: −log10 of the molar value.

This experiment deals with KB. Briefly: Cytotoxicity against human KB cells. The class given is functional, cell-based.
With `COc1ccc(C[C@H]2NC(=O)/C=C\C[C@@H]([C@H](C)[C@H]3O[C@@H]3c3ccccc3)OC(=O)[C@H](CC(C)C)OC(=O)[C@H](C)CNC2=O)cc1Cl` [CRYPTOPHYCIN 327], the pIC50 (usually −log10 of the IC50, conventionally taken in molar units) is 4.85. For `COc1ccc(C[C@H]2NC(=O)/C=C/C[C@@H]([C@H](C)[C@@H]3O[C@H]3c3ccccc3)OC(=O)[C@H](CC(C)C)OC(=O)[C@H](C)CNC2=O)cc1Cl` [CRYPTOPHYCIN 38] the value was 7.26; for `COc1ccc(C[C@H]2NC(=O)/C=C/C[C@@H]([C@H](C)[C@H]3O[C@H]3c3ccccc3)OC(=O)[C@H](CC(C)C)OC(=O)[C@H](C)CNC2=O)cc1Cl` [CRYPTOPHYCIN 39], 7.14.

The molecule `COc1c(Cl)cc(C[C@H]2NC(=O)/C=C/C[C@@H]([C@H](C)[C@H]3O[C@@H]3c3ccccc3)OC(=O)[C@H](CC(C)C)OC(=O)CCNC2=O)cc1Cl` [CRYPTOPHYCIN 326] had a pIC50 of 5.94.

For the molecule `COc1ccc(C[C@H]2NC(=O)/C=C/C[C@@H]([C@H](C)[C@@H]3O[C@@H]3c3ccccc3)OC(=O)[C@H](CC(C)C)OC(=O)[C@H](C)CNC2=O)cc1Cl` [CRYPTOPHYCIN 77], the pIC50 is 6.18.
